In one data set the target is ZAK (Homo sapiens, UniProt Q9NYL2). Kind of data set: Z'-Lyte kinase panel, ZAK. The format is biochemical. Particulars: 1.5 hrs incubation. The protocol:
(§1) Kinase activity assays were performed using the FRET-based Z′-Lyte assay according to the manufacturer’s instructions. The compounds were incubated with the kinase reaction mixture for 1.5 hrs before measurement. The data are means from two independent experiments and the variations are below 20%.

The target in the next data set is PDGFRA (Homo sapiens, UniProt P16234). Description: Z'-Lyte kinase panel, PDGFRA. The following applies: 1.5 hrs incubation. The class given is biochemical. The procedure: as §1
PDGFRA, sequence (P16234 24-1089, species assumed): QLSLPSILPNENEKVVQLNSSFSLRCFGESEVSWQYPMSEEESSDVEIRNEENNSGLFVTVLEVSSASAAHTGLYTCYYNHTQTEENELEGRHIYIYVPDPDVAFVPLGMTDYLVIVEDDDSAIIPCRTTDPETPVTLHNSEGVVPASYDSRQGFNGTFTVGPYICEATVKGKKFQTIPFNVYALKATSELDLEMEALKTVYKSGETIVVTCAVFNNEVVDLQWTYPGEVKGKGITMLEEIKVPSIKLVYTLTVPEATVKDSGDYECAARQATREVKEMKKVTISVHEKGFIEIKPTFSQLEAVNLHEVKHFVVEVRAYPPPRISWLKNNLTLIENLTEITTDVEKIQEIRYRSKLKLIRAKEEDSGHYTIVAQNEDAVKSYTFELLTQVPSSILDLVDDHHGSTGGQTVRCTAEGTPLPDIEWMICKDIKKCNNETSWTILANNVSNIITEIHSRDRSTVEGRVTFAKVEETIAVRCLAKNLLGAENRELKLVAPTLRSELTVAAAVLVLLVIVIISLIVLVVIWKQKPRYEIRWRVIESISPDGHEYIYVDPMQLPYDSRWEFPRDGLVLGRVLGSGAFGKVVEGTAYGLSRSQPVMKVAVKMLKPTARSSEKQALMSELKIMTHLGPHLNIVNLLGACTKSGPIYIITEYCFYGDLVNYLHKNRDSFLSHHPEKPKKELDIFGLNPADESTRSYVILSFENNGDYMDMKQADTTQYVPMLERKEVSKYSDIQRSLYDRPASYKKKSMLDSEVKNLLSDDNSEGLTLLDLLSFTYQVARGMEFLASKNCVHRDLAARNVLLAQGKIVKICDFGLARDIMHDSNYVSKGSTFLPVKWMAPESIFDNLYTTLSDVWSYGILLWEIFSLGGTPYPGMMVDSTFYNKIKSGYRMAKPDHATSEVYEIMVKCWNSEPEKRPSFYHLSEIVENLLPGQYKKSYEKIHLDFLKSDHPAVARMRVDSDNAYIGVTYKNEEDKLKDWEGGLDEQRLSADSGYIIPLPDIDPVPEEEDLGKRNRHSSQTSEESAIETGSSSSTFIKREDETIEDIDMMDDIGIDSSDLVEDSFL
For data set [1], the system named is phosphorylation of EGFR and Erk in H1975 cells. Description: Western blot of EGFR signaling in H1975 cells. The class given is cell-based, human. The following applies: 4 h. The protocol:
Cells were treated with various concentrations of compound for designed time. Then, cells were lysed using 1 × SDS sample lysis buffer (CST recommended) with protease and phosphatase inhibitors. Cell lysates were loaded and electrophoresed onto 8–12% SDS‐PAGE gel, and then, separated proteins were transferred to a PVDF film. The film was blocked with 5% fat‐free milk in TBS solution containing 0.5% Tween‐20 for 4 h at room temperature and then incubated with corresponding primary antibody (1:1000–1:200) overnight at 4°C. After washing with TBST, HRP‐conjugated secondary antibody was incubated for 2 h. And the protein signals were visualized by ECL Western Blotting Detection Kit (Thermo Scientific, Waltham, MA) and detected with Amersham Imager 600 system (GE, America).
Cells were treated with or without compound YL143 for 4 h at indicated concentration, respectively. Cells were harvested for Western blot analysis. […] NCI‐H1975 cells were treated with or without compound YL143(100 nmol/L) for 4 h, and then the medium with compound was removed and fresh medium was added. At the indicated time points, cells were harvest and proteins were extracted and subjected to Western blot analysis.
(Immunoblotting shows a protein as a band on a membrane.)

In another data set the test system is H1975 xenograft. Description: H1975 tumor xenograft in CB17-SCID mice. The class given is in vivo. Particulars: 30 mg/kg, po, qd. The protocol: Male CB17‐SCID mice were purchased from Vital River Laboratory Animal Technology Inc. (Beijing, China). H1975 cells (5 × 10^6/mouse) were injected subcutaneously in the right flanks of mice. […] All the compounds were suspended in 0.5% CMC‐Na aqueous solution. The tumor volume and body weight of animals were measured once every 2 days. Tumor volume was calculated as the L × W ^2/2 (L and W are the length and width of the tumor, respectively). All animal experiments were approved by the Institutional Animal Use and Care Committee of Guangzhou Institute of Biomedicine and Health, Chinese Academy of Science.

The next data set deals with Abl (Homo sapiens, UniProt P00519). Description: Z'-Lyte kinase panel, Abl. The format is biochemical. Particulars: 1.5 hrs incubation. The protocol: as §1
Abl, sequence (P00519 whole entry, species assumed): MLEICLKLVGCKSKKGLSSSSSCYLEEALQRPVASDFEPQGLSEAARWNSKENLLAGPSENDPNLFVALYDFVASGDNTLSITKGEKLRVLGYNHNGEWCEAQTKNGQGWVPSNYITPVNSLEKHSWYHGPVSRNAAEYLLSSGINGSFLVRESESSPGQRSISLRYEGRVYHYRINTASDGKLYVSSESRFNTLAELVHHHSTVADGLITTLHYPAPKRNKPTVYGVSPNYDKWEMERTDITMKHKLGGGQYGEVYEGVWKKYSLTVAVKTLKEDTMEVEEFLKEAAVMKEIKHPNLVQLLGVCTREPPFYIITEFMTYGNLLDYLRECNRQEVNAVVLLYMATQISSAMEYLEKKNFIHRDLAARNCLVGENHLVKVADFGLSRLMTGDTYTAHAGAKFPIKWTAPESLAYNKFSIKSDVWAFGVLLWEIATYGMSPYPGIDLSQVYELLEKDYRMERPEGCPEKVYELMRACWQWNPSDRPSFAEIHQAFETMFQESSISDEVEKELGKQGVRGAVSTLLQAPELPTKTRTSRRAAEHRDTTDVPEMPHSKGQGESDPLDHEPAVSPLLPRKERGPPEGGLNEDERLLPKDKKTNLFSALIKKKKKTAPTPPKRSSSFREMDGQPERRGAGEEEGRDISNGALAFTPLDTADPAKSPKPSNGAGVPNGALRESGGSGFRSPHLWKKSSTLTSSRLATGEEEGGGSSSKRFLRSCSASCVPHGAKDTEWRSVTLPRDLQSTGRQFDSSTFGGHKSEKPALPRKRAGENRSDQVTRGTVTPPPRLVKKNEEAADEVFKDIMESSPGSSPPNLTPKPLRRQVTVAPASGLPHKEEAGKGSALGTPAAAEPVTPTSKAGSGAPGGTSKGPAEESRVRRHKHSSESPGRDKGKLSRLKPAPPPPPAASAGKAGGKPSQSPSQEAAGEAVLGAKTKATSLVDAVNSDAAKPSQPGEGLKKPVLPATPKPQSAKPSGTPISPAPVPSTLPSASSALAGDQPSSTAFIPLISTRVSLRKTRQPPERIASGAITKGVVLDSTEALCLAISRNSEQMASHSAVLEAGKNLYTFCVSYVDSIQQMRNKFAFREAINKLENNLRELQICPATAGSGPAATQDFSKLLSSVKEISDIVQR
The next data set addresses T1, EGFR^Del 19 (Homo sapiens, UniProt P00533, DEL746-750).
T1 construct: purchased Invitrogen
Kind of data set: FRET-based Z'-Lyte kinase assay, EGFR Del 19. The class given is biochemical. Particulars: AV ± SD; 1.5 h incubation. The procedure:
The kinase activity assay was performed and optimized according to the instructions of Z’‐LYTE™ kinase assay kits from the manufacturer (PV4879, Life, America). In our experiments, 10 concentration gradients from 0.01 nmol/L to 1.0 μmol/L were used for all the compounds.

The target in another data set is Kit (Homo sapiens, UniProt P10721). Description: Z'-Lyte kinase panel, Kit. The class given is biochemical. Particulars: 1.5 hrs incubation. The procedure: as §1
Kit, sequence (P10721 26-976, species assumed): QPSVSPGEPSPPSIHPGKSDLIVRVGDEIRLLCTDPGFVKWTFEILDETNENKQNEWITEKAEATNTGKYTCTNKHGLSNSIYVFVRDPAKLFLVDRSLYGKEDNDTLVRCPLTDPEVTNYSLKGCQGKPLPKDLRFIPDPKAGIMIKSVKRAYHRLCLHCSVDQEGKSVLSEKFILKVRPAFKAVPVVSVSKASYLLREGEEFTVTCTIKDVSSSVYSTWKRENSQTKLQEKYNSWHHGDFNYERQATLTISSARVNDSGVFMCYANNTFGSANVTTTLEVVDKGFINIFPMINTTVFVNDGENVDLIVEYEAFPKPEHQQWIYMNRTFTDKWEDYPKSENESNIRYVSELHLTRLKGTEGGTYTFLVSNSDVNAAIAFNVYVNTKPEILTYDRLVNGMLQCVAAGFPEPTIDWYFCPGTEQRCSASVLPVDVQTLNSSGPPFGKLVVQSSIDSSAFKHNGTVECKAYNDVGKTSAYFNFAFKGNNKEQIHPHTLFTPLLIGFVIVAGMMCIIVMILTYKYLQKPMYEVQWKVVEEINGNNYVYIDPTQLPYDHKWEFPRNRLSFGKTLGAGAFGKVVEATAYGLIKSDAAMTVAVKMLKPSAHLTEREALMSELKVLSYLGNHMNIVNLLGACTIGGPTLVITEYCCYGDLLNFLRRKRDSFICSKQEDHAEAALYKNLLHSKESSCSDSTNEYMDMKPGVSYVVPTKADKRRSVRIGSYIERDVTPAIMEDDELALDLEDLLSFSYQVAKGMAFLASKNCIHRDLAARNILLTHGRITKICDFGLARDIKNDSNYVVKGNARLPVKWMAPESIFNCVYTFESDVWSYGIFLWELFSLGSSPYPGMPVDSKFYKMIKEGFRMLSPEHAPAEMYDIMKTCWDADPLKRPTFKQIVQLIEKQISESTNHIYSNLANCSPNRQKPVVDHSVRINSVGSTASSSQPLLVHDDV
The nature of data set [2]: Pharmacokinetic study in SD rats. The format is in vivo, rat. The procedure: Sprague Dawley (SD) rats (180–220 g) were fasted overnight before drug administration. They could eat food and drink water freely during the study. Rats were grouped and treated with 25 and 5 mg/kg of YL143 in vehicle via oral gavage and i.v., respectively. Eyeground vein blood samples (0.20 mL) were collected from each animal at designed time point postdose (5, 30 min, 1, 2, 4, 8, 12, 24, 36, 48, 60, and 72 h.). Blood samples were centrifuged within 10 min at 900 g, and then, plasma was separated and stored at 4°C until analysis. Drug concentration was quantitatively detected using an API 300 mass spectrometer (Applied Biosystems, Canada) with TurboIonSpray source interface. Data acquisition and quantitation were performed using Analyst 1.4 (Applied Biosystems, Canada). All pharmacokinetic parameters were calculated by DAS 2.0 using a noncompartment model (Clinical drug research center of Shanghai University of Traditional Chinese Medicine, Shanghai, China).

The test system of a further data set is BaF3-EGFR ^L858R. Kind of data set: CCK-8 assay, BaF3-EGFR L858R stable cells. The following applies: Ba/F3 EGFR-L858R; CCK-8; AV±SD; read-out: anti-proliferative activity BaF3-EGFR L858R. The format is cell-based. The protocol: Cells were seeded into 96‐well plates at a density of 1500~3000/well in complete medium overnight. Then, cells were treated with various concentrations (0.01~1000 nmol/L) of YL143 for additional 3 days. Viable cell numbers were determined by Cell Counting Kit 8 (CCK8, CK04, Dojindo Laboratories, Japan). Each assay consisted of three replicate wells and repeated at least three times. […] Each IC50 value was expressed as mean ± SD.
The anti-proliferative activities of the compounds were evaluated using CCK-8 assay. The data were means from at least four independent experiments.
For orientation: Tetrazolium assays rely on reduction of a dye to a coloured formazan, in cell work by metabolically active cells.

A further data set concerns the target AKT3 (Homo sapiens, UniProt Q9Y243). Kind of data set: Z'-Lyte kinase panel, AKT3. The class given is biochemical. Particulars: 1.5 hrs incubation. The protocol:
as §1

[3] abbreviates: Sprague-Dawley, rat, plasma, iv, I.V. 5 mg/Kg.
Where [4] appears, read: Sprague-Dawley, rat, plasma, po, P.O. 25 mg/Kg.

Entries after “also recorded” stand apart in the source; their conditions may differ. A value given as a limit tells only on which side of the number the result lay.

Here are results for one molecule from article PMC5911580, “YL143, a novel mutant selective irreversible EGFR inhibitor, overcomes EGFR^L858R, T790M‐mutant resistance in vitro and in vivo” (Cancer Medicine, 2018).

T1 sequence (P00533 with tags, fused parts or gaps DEL746-750): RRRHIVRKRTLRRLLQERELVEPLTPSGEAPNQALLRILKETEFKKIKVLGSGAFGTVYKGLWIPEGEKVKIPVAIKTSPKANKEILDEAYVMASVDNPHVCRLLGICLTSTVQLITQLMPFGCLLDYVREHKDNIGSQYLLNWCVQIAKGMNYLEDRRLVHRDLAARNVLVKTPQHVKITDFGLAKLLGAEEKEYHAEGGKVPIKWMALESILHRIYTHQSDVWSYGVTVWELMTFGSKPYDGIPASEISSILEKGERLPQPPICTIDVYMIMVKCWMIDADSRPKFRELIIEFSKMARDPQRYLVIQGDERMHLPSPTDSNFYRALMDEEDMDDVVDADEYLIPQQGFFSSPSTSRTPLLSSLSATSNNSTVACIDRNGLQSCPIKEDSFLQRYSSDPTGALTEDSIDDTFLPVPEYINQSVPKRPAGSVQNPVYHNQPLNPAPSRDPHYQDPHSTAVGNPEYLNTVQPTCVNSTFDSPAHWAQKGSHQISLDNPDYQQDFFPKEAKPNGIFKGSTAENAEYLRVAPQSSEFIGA
ZAK, sequence (Q9NYL2 whole entry, species assumed): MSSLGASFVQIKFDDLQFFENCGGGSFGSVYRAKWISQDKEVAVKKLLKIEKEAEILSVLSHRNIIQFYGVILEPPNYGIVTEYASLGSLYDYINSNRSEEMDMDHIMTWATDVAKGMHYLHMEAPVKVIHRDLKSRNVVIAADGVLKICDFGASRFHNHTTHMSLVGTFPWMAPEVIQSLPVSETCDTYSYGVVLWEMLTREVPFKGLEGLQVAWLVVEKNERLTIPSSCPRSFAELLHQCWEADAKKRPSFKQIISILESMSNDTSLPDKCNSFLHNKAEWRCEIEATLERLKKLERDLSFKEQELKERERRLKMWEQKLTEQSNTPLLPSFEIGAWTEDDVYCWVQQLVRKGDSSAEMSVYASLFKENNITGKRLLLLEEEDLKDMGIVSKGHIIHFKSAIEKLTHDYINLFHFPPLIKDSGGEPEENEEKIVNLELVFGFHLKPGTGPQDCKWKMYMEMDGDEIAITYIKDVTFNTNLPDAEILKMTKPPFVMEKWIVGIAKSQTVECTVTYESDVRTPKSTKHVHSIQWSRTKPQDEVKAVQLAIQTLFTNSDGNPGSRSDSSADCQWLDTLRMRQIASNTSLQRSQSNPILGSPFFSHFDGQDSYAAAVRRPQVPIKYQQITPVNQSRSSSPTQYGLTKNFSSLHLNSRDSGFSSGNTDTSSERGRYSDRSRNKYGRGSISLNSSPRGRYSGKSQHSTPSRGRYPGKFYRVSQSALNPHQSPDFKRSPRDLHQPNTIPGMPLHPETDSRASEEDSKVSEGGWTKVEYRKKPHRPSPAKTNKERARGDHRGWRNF
AKT3, sequence (Q9Y243 whole entry, species assumed): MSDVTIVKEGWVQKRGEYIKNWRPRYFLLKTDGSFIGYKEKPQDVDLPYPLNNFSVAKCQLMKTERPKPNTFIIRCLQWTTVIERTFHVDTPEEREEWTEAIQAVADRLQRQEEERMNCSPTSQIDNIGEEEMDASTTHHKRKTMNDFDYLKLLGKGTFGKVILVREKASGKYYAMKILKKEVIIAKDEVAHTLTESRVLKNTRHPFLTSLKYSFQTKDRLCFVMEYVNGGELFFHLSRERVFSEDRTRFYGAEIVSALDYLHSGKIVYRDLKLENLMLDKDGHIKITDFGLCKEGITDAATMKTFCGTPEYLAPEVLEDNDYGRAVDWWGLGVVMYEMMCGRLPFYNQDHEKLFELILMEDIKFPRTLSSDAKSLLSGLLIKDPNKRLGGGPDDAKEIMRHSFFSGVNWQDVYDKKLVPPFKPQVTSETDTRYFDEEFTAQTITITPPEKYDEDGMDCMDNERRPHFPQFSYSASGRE

The half-life is the time in which the quantity being followed falls by half. A higher half-life goes with slow decline. The term AUC(0-inf) denotes total exposure, with the tail of the curve extrapolated. A word on the Cmax: it is the highest concentration seen after dosing. For orientation: Tmax means the time at which the peak concentration occurs. By bioavailability is commonly meant dose-corrected exposure relative to a reference, in per cent. Consider `C=CC(=O)Nc1cc(C)cc(-n2c(=O)cc(C)c3cnc(Nc4ccc(N5CCN(C)CC5)cc4OC)nc32)c1` [YL143, N‐(3‐(2‐((2‐Methoxy‐4‐(4‐methylpiperazin‐1‐yl)phenyl)amino)‐5‐methyl‐7‐oxopyrido [2,3‐d]pyrimidin‐8(7H)‐yl)‐5‐methylphenyl)acrylamide], for which the IC50 on ZAK is over 10 µM; at PDGFRA it was over 10 µM; on Abl, over 10 µM; on EGFR^Del 19, 0.0815 ± 0.0103 µM; against Kit, over 10 µM; in the data set with BaF3-EGFR ^L858R it was 0.071 ± 0.041 µM. The IC50 against AKT3 was over 10 µM. For the same molecule, in [1], the “phosphorylation of EGFR and Erk” value was “dose‐dependently inhibited”. In the data set on H1975 xenograft (18 days), the “TUNEL stain of the tumor tissue” value is given as “induced apoptosis”. Also, the antitumor efficacy result in the data set on H1975 xenograft (18 days) was “promising antitumor efficacy; also recorded: comparable in vivo antitumor effect to that of CO1686”. Besides, in the data set with H1975 xenograft (18 days), the “tolerability (mortality, body weight)” value is listed as “well tolerated; also recorded: without significantly toxic signs”. Further, the “hyperglycemia side effect (blood glucose)” value in the data set with H1975 xenograft (day 7 and 14, compared with CO1686) is on record as “weaker hyperglycemia side effect”. Moreover, in [2] (P.O. 25 mg/Kg vs I.V. 5 mg/Kg), the “BA (oral bioavailability)” value was 24.95%. The molecule further showed a T1/2 in [2] (P.O. 25 mg/Kg, 25 mg/kg) of 6.13 h. The half-life was 1.36 h in [2] (Sprague-Dawley, rat, plasma, iv, 5 mg/kg, I.V. 5 mg/Kg) and 6.1 h in data set [2] (Sprague-Dawley, rat, plasma, po, 25 mg/kg, P.O. 25 mg/Kg). In addition, the AUC(0-inf) in [2] (setting [3]) is 1880 ng·h/mL; in data set [2] (setting [4]), 2340 ng·h/mL. In addition, the Cmax in [2] (setting [3]) was 3270 ng/mL; in data set [2] (setting [4]), 160 ng/mL; in data set [2] (Sprague-Dawley, rat, plasma, single oral dosing 25 mg/kg), 297 nM. The Tmax in data set [2] (setting [3]) was determined as 0.08 h; in data set [2] (setting [4]) it was 6.67 h. The bioavailability in data set [2] (Sprague-Dawley, rat, plasma, oral, 25 mg/kg, P.O. 25 mg/Kg vs I.V. 5 mg/Kg, read-out: BA (oral bioavailability)) turned out to be 25%.
